Experimental findings from publication PMC8399443, “Synthesis, Biological Evaluation, and In Silico Modeling of N-Substituted Quinoxaline-2-Carboxamides” (Pharmaceuticals, 2021) are described below.

For one data set, the system named is S. aureus. Kind of data set: In vitro antibacterial activity, microdilution broth (EUCAST). Format: cell-based. The following applies: Staphylococcus aureus.
For a further data set, the system named is MRSA. Described as above. The class given is cell-based, Staphylococcus aureus methicillin resistant. The following applies: Staphylococcus aureus.
A further data set relates to E. faecalis. Described as above. The note with it: Enterococcus faecalis. Format: cell-based.
The test system of another data set is E. coli. The data set is described as above. Format: cell-based. The following applies: Escherichia coli.
For a further data set, the system named is P. aeruginosa. The description is as above. Format: cell-based. The following applies: Pseudomonas aeruginosa.
For a further data set, the system named is S. epidermidis. The description is as above. Format: cell-based. The following applies: Staphylococcus epidermidis.
In a further data set the test system is K. pneumoniae. Described as above. The following applies: Klebsiella pneumoniae. The class given is cell-based.
Another data set concerns S. marcescens. The description is as above. The class given is cell-based. The note with it: Serratia marcescens.
Another data set deals with Mtb H37Ra. The experiment in a line: In vitro antimycobacterial activity, Microplate Alamar Blue Assay (MABA). Format: cell-based, Mycobacterium tuberculosis. The following applies: Mycobacterium tuberculosis, H37RA, read-out: MIC Mtb H37Ra. For orientation: Resazurin is reduced to fluorescent resorufin, in cell work by metabolically active cells.
The test system of another data set is M. smegmatis. Kind of data set: In vitro antimycobacterial activity, MABA. The class given is cell-based, Mycobacterium smegmatis. The note with it: Mycolicibacterium smegmatis; MABA; read-out: MIC M. smeg.
The test system of another data set is M. aurum. The experiment in a line: In vitro antimycobacterial activity, MABA. Format: cell-based, Mycobacterium aurum. The note with it: Mycolicibacterium aurum; MABA; read-out: MIC M. aurum.
The test system of a further data set is HepG2 cell line. Kind of data set: In vitro cytotoxicity, CellTiter 96 (MTS). Format: cell-based. The note with it: Homo sapiens, HepG2; cytotoxicity, 24 h incubation, CellTiter 96; read-out: HepG2 IC50.
The test system of a further data set is C. albicans. Kind of data set: In vitro antifungal activity, microdilution broth (EUCAST). Format: cell-based. The note with it: Candida albicans; read-out: MIC C. albicans.
The next data set concerns C. krusei. Described as above. The note with it: Pichia kudriavzevii. The class given is cell-based, Candida krusei.
A further data set deals with C. parapsilosis. The description is as above. The class given is cell-based, Candida parapsilosis. The following applies: Lodderomyces parapsilosis.
A further data set has as its system C. tropicalis. The data set is described as above. The class given is cell-based. The note with it: Candida tropicalis.
For another data set, the system named is A. flavus. The data set is described as above. The following applies: Aspergillus flavus; read-out: MIC A. flavus. Format: cell-based.
A further data set relates to L. corymbifera. Described as above. The class given is cell-based. The note with it: Lichtheimia corymbifera; read-out: MIC L. corymbifera.
The test system of the next data set is T. interdigitale. The description is as above. Format: cell-based. The following applies: Trichophyton interdigitale; read-out: MIC T. interdigitale.
The next data set has as its system A. fumigatus. Described as above. The class given is cell-based. The following applies: Aspergillus fumigatus; read-out: MIC A. fumigatus.
Data set [1] can be described thus: In vitro cytotoxicity, non-cancerous cells. The class given is cell-based. The note with it: human, HK-2 kidney cortex proximal tubule cells (non-cancerous); 24 hours incubation.
In data set [2] the test system is human glioblastoma U-87 MG cell line. Kind of data set: In vitro cytotoxicity. The class given is cell-based. The following applies: 24 h, read-out: Cytotoxicity IC50 U-87 MG.
Data set [3] has as its system human epithelial kidney cancer A498 cell line. Kind of data set: In vitro cytotoxicity. The class given is cell-based. The following applies: A498, 24 h, read-out: Cytotoxicity IC50 A498.
Data set [4] relates to human prostate cancer PC-3 cell line. The experiment in a line: In vitro cytotoxicity. The note with it: PC-3, 24 h, read-out: Cytotoxicity IC50 PC-3. Format: cell-based.
The subject of data set [5] is human ovarian cancer SK-OV-3 cell line. Kind of data set: In vitro cytotoxicity. Format: cell-based. The note with it: SK-OV-3, 24 h, read-out: Cytotoxicity IC50 SK-OV-3.

Several values for one entry are separate records, joined by “and”; a condition that tells them apart may be missing. Equal values may be shown once. Read-outs that look alike come from different tables or passages of the source.

Take `CNC(C)C1CCC(N)C(OC2C(N)CC(N)C(OC3OCC(C)(O)C(NC)C3O)C2O)O1` (stereo not drawn) [gentamicin]: the MIC was 1 µg/mL in the data set on S. aureus (48 h, standards, read-out: MIC Staphylococcus aureus); 16 to 32 µg/mL in the data set with MRSA (48 h, read-out: MIC Staphylococcus aureus methicillin resistant); 8 µg/mL with E. faecalis (48 h, standards, read-out: MIC Enterococcus faecalis); 1 to 2 µg/mL in the data set on E. coli (48 h, standards, read-out: MIC Escherichia coli); 0.5 µg/mL in the data set on P. aeruginosa (48 h, standards, read-out: MIC Pseudomonas aeruginosa); over 8 µg/mL with S. epidermidis (48 h, standards, read-out: MIC Staphylococcus epidermidis). The MIC is over 8 µg/mL with K. pneumoniae (48 h, standards, read-out: MIC Klebsiella pneumonia) and 2 µg/mL with S. marcescens (48 h, standards, read-out: MIC Serratia marcescens).
For the compound `O=C(NCc1cccc2ccccc12)c1cnc2ccccc2n1` [Compound 29, N-(naphthalen-1-ylmethyl)quinoxaline-2-carboxamide], the MIC with Mtb H37Ra is ≥ 250 µg/mL and ≥ 798 µM; in the data set on M. smegmatis, ≥ 125 µg/mL and ≥ 399 µM; in the data set with M. aurum, ≥ 125 µg/mL and ≥ 399 µM; in the data set on S. aureus (read-out: MIC S. aureus), at least 500 µM; with MRSA (read-out: MIC MRSA), at least 500 µM; with E. faecalis (read-out: MIC E. faecalis) it was at least 500 µM. For the same compound, the MIC in the data set with E. coli (read-out: MIC E. coli), in the data set with P. aeruginosa (read-out: MIC P. aeruginosa), with S. epidermidis (read-out: MIC S. epidermidis), in the data set with K. pneumoniae (read-out: MIC K. pneumoniae), in the data set with S. marcescens (read-out: MIC S. marcescens) and with C. albicans was at least 500 µM each time. For the same compound, the MIC in the data set with C. krusei, with C. parapsilosis, against C. tropicalis, with A. flavus, with L. corymbifera and with T. interdigitale was at least 500 µM in each case. Besides, the MIC with A. fumigatus is at least 500 µM. Besides, the 50% inhibitory concentration (IC50) in the data set on HepG2 cell line was 37.3 µM; in data set [2], over 250 µM; in [3], over 250 µM; in data set [4], 68.5 µM; in data set [5], 49.6 µM. Besides, the concentration for half-maximal inhibition (IC50) at 24 h in data set [1] is over 250 µM.

Usually MIC stands for the lowest concentration that inhibits growth of the organism. A word on the IC50: it is the concentration that gives 50% inhibition.
